We go through three compounds from paper PMC8066331, “Anticancer Activity of Triazolo-Thiadiazole Derivatives and Inhibition of AKT1 and AKT2 Activation” (Pharmaceutics, 2021).

Data set [1] concerns DU-145. Nature of the data set: MTT in vitro antiproliferative assay, DU-145. Type of data set: cell-based, human. The note with it: DU-145, MTT; for TGI / GI50: 48 h drug exposure; for IC50 / GI50: Homo sapiens; for IC50: 48 h, 50% cell death, read-out: IC50; for GI50: read-out: GI50. The source says:
(§1) The in vitro antiproliferative activities of the novel triazolo[3,4-b]thiadiazole derivatives were estimated in ten well-established human cancer cell lines including three ovarian (SKOV-3, UWB 1.289, and UWB 1.289+BRCA1), five colorectal adenocarcinoma (DLD-1, HT-29, LS174T, LoVo, and SW403), and two prostate cancer cell lines (PC-3 and DU-145). All cancer cell lines were obtained from the American Type Culture Collection (ATCC) and cultivated in different culture media according to the instructions. The required growth mediums were supplemented with 10% fetal bovine serum and 1% streptomycin/penicillin. All cancer cell lines were cultured as monolayers and maintained at 37 °C, 5% CO2 in humidified air.
(§2) Stock solutions of all tested compounds were prepared by dissolving the required amount of substances in the DMSO solvent to reach the desired concentration of 15 mM.
(§3) To evaluate the in vitro antiproliferative activity of the triazolo[3,4-b]thiadiazole derivatives, 3-(4,5-dimethylthiazol-2-yl)-2,5-diphenyltetrazolium bromide (MTT) assay was assessed. According to the protocol, cells were firstly seeded into a 96-well plate at a density of 8 × 10^3 cells and grown for 24 h at 37 °C, 5% CO2 in humidified air. Subsequently, cells were treated with the tested compounds in a specific range of drug concentrations (1–100 μΜ). Following 48 h of drug exposure, the culture media were discarded and replaced with 100 μL of fresh medium. Afterwards, 50 μL of dissolved MTT in phosphate-buffered saline (PBS) solution (5 mg/mL) were added in each well and cells were incubated for 3 h at 37 °C, 5% CO2 in humidified air. Incubation time was followed by MTT discard and the addition of 100 μL of DMSO solvent so that the formazan crystals could be dissolved. The absorbance of the converted dye was immediately measured at a wavelength of 540 nm on an ELISA reader (VersaMax Microplate Reader, Orleans, CA, USA).
(§4) The in vitro anticancer effect of a tested compound on cell viability was determined by three dose–response parameters termed GI50, TGI, and IC50. More specifically, the GI50 value indicates the required concentration of the compound that impels 50% cell growth inhibition, the TGI value corresponds to the concentration that induces 100% cell growth inhibition, and the IC50 value is the concentration that causes 50% cell death. The two parameters GI50 and TGI represent the cytostatic activity, whereas IC50 reflects the cytotoxic effect of a drug. To estimate the three parameters, nine absorbance measurements were required including control 24 h (Ct24), control 72 h (Ct72), and the mean of cell survival in all seven drug concentrations (Tt72). The percentage growth inhibition was calculated according to National Cancer Institute’s (NCI) protocol: [(Tt72x) − (Ct24)/(Ct72) − (Ct24)] × 100 for concentrations for which Tt72x > Ct24 and [(Tt72x) − (Ct24)/Ct24] × 100 for concentrations for which Tt72x < Ct24. GI50 was calculated from [(Tt72x) − (Ct24)/(Ct72) − (Ct24)] × 100 = 50, TGI was calculated from [(Tt72x) − (Ct24)/(Ct72) − (Ct24)] × 100 = 0, and IC50 was calculated from [(Tt72x) − (Ct24)/Ct24] × 100 = 50. All the experiments were carried out in triplicate.

Data set [2] concerns SKOV-3. Nature of the data set: MTT in vitro antiproliferative assay, SKOV-3. The format is cell-based. The note with it: Homo sapiens, SK-OV-3, SKOV-3, MTT; for IC50: 48 h, concentration causing 50% cell death, read-out: IC50; for GI50 / IC (TGI): 48 h drug exposure; for GI50: read-out: GI50; for IC (TGI): read-out: TGI.
From the text: as §1, §2, §3, §4

Data set [3] concerns LS174T. Nature of the data set: MTT in vitro antiproliferative assay, LS174T. The format is cell-based, human. The note with it: for TGI / GI50: 48 h drug exposure; for IC50 / GI50: Homo sapiens; for IC50: 48 h, 50% cell death.
From the text: as §1, §2, §3, §4

Data set [4] in a line: In vivo acute toxicity. The note with it: both sexes, mouse, in vivo, ip; CB17 SCID mice, single i.p. injection, 30 days observation, estimated graphically. The protocol:
(§5) CB17 severe combined immunodeficient (SCID) male and female mice were used for toxicity and antitumor activity studies. Mice were obtained from National Center for Scientific Research (NCSR) Demokritos, Institute of Biology, Athens, Greece. CB17 SCID mice were fed water and an irradiated standard rodent diet ad libitum and housed under specific pathogen-free conditions. For ethical reasons, the weight and tumor volumes of the animals were measured twice a week during the experiment. In case of cachexia, suffering, or increase in the tumor volume up to 2000 mm^3, the animals were sacrificed by cervical disruption.
(§6) For intraperitoneal (i.p.) treatment, stock solutions of the 3 tested compounds were prepared immediately before use. They were suspended in corn oil in the desired concentrations following initial dissolution in 10% dimethyl sulfoxide (DMSO). […] Briefly, the acute toxicity of the tested compounds was assessed for lethality in CB17 SCID mice and determined as previously described. […] Each dosage comprised a group of ten mice, including males and females, that received single i.p. injections.

Data set [5] deals with CB17 SCID mice. Nature of the data set: In vivo acute toxicity. The note with it: single i.p. injection, 30 days observation, estimated graphically. The protocol: as §5, §6
For data set [6], the system named is UWB1.289+BRCA1. Nature of the data set: MTT in vitro antiproliferative assay, UWB1.289+BRCA1. Type of data set: cell-based, human. The note with it: UWB1.289+BRCA1, MTT; for IC50 / GI50: Homo sapiens; for IC50: 48 h, 50% cell death; for GI50 / TGI: 48 h drug exposure.
From the text: as §1, §2, §3, §4

Data set [7] deals with HT-29. Nature of the data set: MTT in vitro antiproliferative assay, HT-29. The format is cell-based, human. The note with it: HT-29, MTT; for IC50 / GI50: Homo sapiens; for IC50: 48 h, 50% cell death, read-out: IC50; for GI50: read-out: GI50.
From the text: as §1, §2, §3, §4

Usually IC50 stands for the concentration that inhibits the measured activity by half. The term GI50 denotes the concentration giving 50% growth inhibition. Broadly, the LD50 is the dose expected to kill half of the subjects tested. As for `COc1cc(Cc2nnc3sc(-c4cc([N+](=O)[O-])ccc4[N+](=O)[O-])nn23)c(S(=O)(=O)N(C)C)cc1OC` [KA39], the TGI in data set [1] is recorded as 8 ± 0.4 μΜ; in data set [3], 17 ± 1.3 μΜ; in data set [6], 11 ± 0.7 μΜ; in data set [7] (48 h drug exposure), 15.9 ± 0.55 μΜ. In addition, the IC50 is 10.3 ± 1.8 µM in data set [1]; 25 ± 1.4 µM in data set [2]; 21.5 ± 1.5 µM in data set [3]; 94 ± 2.3 µM in data set [6]; 19.5 ± 0.9 µM in data set [7]. Further, the GI50 in data set [1] worked out at 5.8 ± 0.2 µM; in data set [2], 7 ± 0.2 µM; in data set [3], 12 ± 1.5 µM; in data set [6] it was 6 ± 0.5 µM; in data set [7] (48 h drug exposure) it was 11.5 ± 0.8 µM. Further, the IC (TGI) in data set [2] turned out to be 12 ± 0.8 µM. The LD50 at 30 days in data set [4] is 100 mg/kg. In addition, the LD10 in data set [5] is 70 mg/kg.
On to `COc1cc(Cc2nnc3sc(C=Cc4ccc(Cl)cc4)nn23)c(S(=O)(=O)N(C)C)cc1OC` [KA26], for which the TGI in data set [1] is given as 70 ± 1.3 μΜ; in data set [3], above 100 μΜ; in data set [6] it was 65 ± 0.7 μΜ. For the same compound, the IC50 in data set [1], in data set [2], in data set [3], in data set [6] and in data set [7] was above 100 µM throughout. Moreover, the GI50 was 7 ± 1 µM in data set [1]; 20 ± 0.5 µM in data set [2]; 8 ± 1.5 µM in data set [3]; 42 ± 0.5 µM in data set [6]; 2 ± 0.76 µM in data set [7] (48 h drug exposure). Also, the IC (TGI) in data set [2] was above 100 µM. Besides, the LD50 at 30 days in data set [4] was 160 mg/kg. In addition, in data set [5], the LD10 is reported as 100 mg/kg.
Regarding `COc1cc(Cc2nnc3sc(C=Cc4ccc(F)cc4)nn23)c(S(=O)(=O)N(C)C)cc1OC` [KA25], the TGI is reported as 13.2 ± 0.5 μΜ in data set [1], 100 ± 0.1 μΜ in data set [3] and 13 ± 0.8 μΜ in data set [6]. The IC50 in data set [1] is 27 ± 0.3 µM; in data set [2] it was 85 ± 2.1 µM; in data set [3] it was above 100 µM; in data set [6], 38 ± 1.1 µM; in data set [7], above 100 µM. For the same compound, the GI50 in data set [1] stood at 12.8 ± 1.3 µM; in data set [2], 15 ± 0.5 µM; in data set [3], 9.3 ± 2 µM; in data set [6], 4 ± 0.5 µM; in data set [7] (48 h drug exposure), 1 ± 0.3 µM. Besides, the IC (TGI) in data set [2] amounted to 50 ± 1.5 µM. In data set [4], the LD50 at 30 days was 360 mg/kg. In data set [5], the LD10 was 200 mg/kg.
